Data as given in patent US20210292340A1, “CELL NECROSIS INHIBITOR, PREPARATION METHOD THEREFOR AND USE THEREOF” (SHANGHAI INSTITUTE OF ORGANIC CHEMISTRY, CHINESE ACADEMY OF …, priority 2018, published 2021).

Tested on: Jurkat (FADD−/−) cells
Assay: Inhibition of TNF-induced programmed Jurkat (FADD−/−) cell necrosis (Cell Titer-Glo)
Type: cell-based, human
Conditions: Homo sapiens, Jurkat, 20 h, TNF 10 ng/mL, intracellular ATP level, read-out: Cellular IC50 (M) Jurkat (FADD−/−)
Description: Two replicate wells were set for each concentration of each compound.
Jurkat (FADD^−/−) cells (human-derived peripheral blood leukemia T cell line, with FADD gene knocked out) were cultured in vitro. After growing to logarithmic growth phase, the cells were harvested, and centrifuged at 1000 rpm for 5 min. The supernatant was discarded, and the cells were resuspended in fresh medium and adjusted to a cell density of 5×10^5/mL. The cell suspension was added to the culture plate containing the drug (40 μL per well). In the treatment groups, 10 μL of TNF (tumor necrosis factor, final concentration 10 ng/mL) diluted with the cell culture medium was added to each well, and incubated for 20 h in a cell incubator (37° C., 5% CO2). Subsequently, 50 μL of Cell Titer-Glo solution was added to each well and incubated at room temperature for 10 min. Then, the luminescence was detected on BioTek plate reader to measure the intracellular ATP level. The effect of the test compounds in inhibiting TNF-induced cell necrosis was calculated from the full-activity well and background well (with the untreated DMSO control well as 100% cell viability), and the half inhibitory concentration (IC50) of the compound was calculated by Graphpad Prism statistical software.

| Structure (SMILES) | IC50 |
| --- | --- |
| CN1C(=O)[C@@H](NC(=O)c2n[nH]c(Cc3c(F)cc(F)cc3F)n2)COc2ccc3cnccc3c21 [RIP1-162] | 5.4e-08 M |
| CN1C(=O)[C@@H](NC(=O)c2cc(Oc3ccccc3)ccn2)COc2cc3occc3cc21 [RIP1-180] | 2.66e-10 M |
| Cc1ccc(Cc2cc(C(=O)N[C@H]3COc4cc5[nH]c(C)nc5cc4N(C)C3=O)n(C)n2)cc1 [RIP1-073] | > 2e-06 M |
| CN1C(=O)[C@@H](NC(=O)c2ccc(Oc3ccccc3)cn2)COc2ccc3ncccc3c21 [RIP1-196] | > 2e-05 M |
| CN1C(=O)[C@@H](NC(=O)c2cc(Cc3ccccc3)on2)COc2cc3[nH]ccc3cc21 [RIP1-116] | 5.16e-09 M |
| CN1C(=O)[C@@H](NC(=O)c2nnc(Cc3cccc(F)c3)[nH]2)COc2cc3ocnc3cc21 [RIP1-217] | 1.38e-09 M |
| CN1C(=O)[C@@H](NC(=O)c2cnnn2Cc2ccccc2)CSc2cc3[nH]ccc3cc21 [RIP1-051] | > 2e-06 M |
| CN1C(=O)[C@@H](NC(=O)c2nnc(Cc3ccccc3)[nH]2)CSc2cc3occc3cc21 [RIP1-039] | 4.5e-10 M |
| CN1C(=O)[C@@H](NC(=O)c2cc(Oc3ccc(F)cc3)ccn2)COc2ccc3ncccc3c21 [RIP1-197] | 2.92e-08 M |
| CN1C(=O)[C@@H](NC(=O)c2cc(Oc3cccnc3)ccn2)COc2cc3ncoc3cc21 [RIP1-212] | 1.81e-08 M |
| CN1C(=O)[C@H](NC(=O)c2cc(Cc3ccccc3)on2)COc2cc3c(ccn3C)cc21 [RIP1-080] | > 2e-06 M |
| CN1C(=O)[C@@H](NC(=O)c2cnn(Cc3ccccc3)c2)COc2cc3[nH]c(=O)[nH]c3cc21 [RIP1-074] | > 2e-06 M |
| COc1ncnc2cc3c(cc12)N(C)C(=O)[C@@H](NC(=O)c1n[nH]c(Cc2cccc(F)c2)n1)CO3 [RIP1-159] | 8.7e-09 M |
| CN1C(=O)[C@@H](NC(=O)c2ncn(Cc3ccccc3)n2)CSc2cc3[nH]ccc3cc21 [RIP1-008] | 2.4e-10 M |
| CN1C(=O)[C@@H](NC(=O)c2cn(Cc3ccccc3)cn2)CSc2cc3c(ccn3Cc3ccccc3)cc21 [RIP1-088] | > 2e-06 M |
| CN1C(=O)[C@@H](NC(=O)c2ccnc(Oc3ccccc3)n2)COc2ccc3ncccc3c21 [RIP1-199] | 4.76e-05 M |
| CN1C(=O)[C@@H](NC(=O)c2n[nH]c(Cc3cccc(F)c3)n2)COc2ccc3ncccc3c21 [RIP1-172] | 5e-09 M |
| CN1C(=O)[C@@H](NC(=O)c2n[nH]c(Cc3c(F)cc(F)cc3F)n2)COc2cc3ncoc3cc21 [RIP1-184] | 3.76e-08 M |
| CN1C(=O)[C@H](NC(=O)c2nnc(Cc3ccccc3)o2)COc2cc3c(ccn3C)cc21 [RIP1-081] | > 2e-06 M |
| CN1C(=O)[C@@H](NC(=O)c2nnn(Cc3ccccc3)n2)CSc2cc3[nH]ccc3cc21 [RIP1-043] | 1.31e-10 M |
| CN1C(=O)[C@@H](NC(=O)c2cn(Cc3ccccc3)cn2)CSc2ccc3cnccc3c21 [RIP1-104] | 7.4e-10 M |
| Cc1ccc(Cc2cc(C(=O)N[C@H]3COc4cc5[nH]nnc5cc4N(C)C3=O)nn2C)cc1 [RIP1-141] | 2.19e-08 M |
| Cc1nc2cc3c(cc2[nH]1)OC[C@H](NC(=O)c1cnn(Cc2ccccc2)c1)C(=O)N3C [RIP1-062] | > 2e-06 M |
| CN1C(=O)[C@@H](NC(=O)c2cnn(Cc3ccccc3)c2)CSc2cc3c(ccn3Cc3ccccc3)cc21 [RIP1-083] | > 2e-06 M |

| Structure (SMILES) | IC50 |
| --- | --- |
| Cc1ccc(Cc2cc(C(=O)N[C@H]3CSc4cc5c(ccn5C)cc4N(C)C3=O)nn2C)cc1 [RIP1-056] | 4.15e-08 M |
| Cc1nc2cc3c(cc2[nH]1)OC[C@H](NC(=O)c1cnnn1Cc1ccccc1)C(=O)N3C [RIP1-064] | > 2e-06 M |
| Cc1nc2cc3c(cc2[nH]1)OC[C@H](NC(=O)c1cn(Cc2ccccc2)nn1)C(=O)N3C [RIP1-063] | 4.57e-08 M |
| CN1C(=O)[C@@H](NC(=O)c2cn(Cc3ccccc3)nn2)CSc2ccc3cnccc3c21 [RIP1-105] | 3.22e-09 M |
| CN1C(=O)[C@@H](NC(=O)c2cnn(Cc3ccccc3)c2)CSc2cc3[nH]ccc3cc21 [RIP1-004] | 5.63e-08 M |
| CN1C(=O)[C@@H](NC(=O)c2n[nH]c(Cc3ccc(F)cc3)n2)COc2ccc3cnccc3c21 [RIP1-164] | 3.3e-09 M |
| CN1C(=O)[C@@H](NC(=O)c2n[nH]c(Cc3ccccc3F)n2)COc2ccc3cnccc3c21 [RIP1-163] | 1.3e-09 M |
| CN1C(=O)[C@@H](NC(=O)c2cn(Cc3ccccc3)nn2)CSc2cc3[nH]ccc3cc21 [RIP1-042] | 1.93e-09 M |
| CN1C(=O)[C@@H](NC(=O)c2cnn(Cc3ccccc3)c2)CSc2cc3c(ccn3C)cc21 [RIP1-010] | 9.6e-08 M |
| CN1C(=O)[C@@H](NC(=O)c2n[nH]c(Cc3cccc(F)c3)n2)COc2cc3ncoc3cc21 [RIP1-222] | 5.62e-09 M |
| COc1ncnc2cc3c(cc12)N(C)C(=O)[C@@H](NC(=O)c1cc(Oc2ccccc2)ccn1)CO3 [RIP1-175] | 1.46e-09 M |
| CN1C(=O)[C@@H](NC(=O)c2nnc(Cc3ccccc3F)[nH]2)COc2cc3ocnc3cc21 [RIP1-219] | 6.75e-10 M |
| CN1C(=O)[C@@H](NC(=O)c2n[nH]c(Cc3ccc(F)cc3)n2)COc2cc3nccnc3cc21 [RIP1-207] | 4.88e-09 M |
| CN1C(=O)[C@@H](NC(=O)c2cccc(Cc3ccccc3)c2)CSc2cc3c(ccn3C)cc21 [RIP1-011] | 3.24e-07 M |
| CN1C(=O)[C@@H](NC(=O)c2cn(Cc3ccccc3)cn2)COc2cc3nccnc3cc21 [RIP1-129] | 7.94e-07 M |
| CN1C(=O)[C@@H](NC(=O)c2cn(Cc3ccccc3)cn2)CSc2cc3c(ccn3C)cc21 [RIP1-055] | 2.29e-09 M |
| CN1C(=O)[C@@H](NC(=O)c2n[nH]c(Cc3ccccc3)n2)COc2cc3ncnc(O)c3cc21 [RIP1-187] | 2.59e-07 M |
| CN1C(=O)[C@@H](NC(=O)c2cncn2Cc2ccccc2)CSc2cc3[nH]ccc3cc21 [RIP1-005] | > 2e-06 M |
| CN1C(=O)[C@@H](NC(=O)c2n[nH]c(Cc3ccccc3F)n2)COc2cc3ncoc3cc21 [RIP1-206] | 8.18e-10 M |
| CN1C(=O)[C@@H](NC(=O)c2cn(Cc3ccccc3)nn2)CSc2cc3c(ccn3C)cc21 [RIP1-048] | 5.1e-09 M |
| CN1C(=O)[C@@H](NC(=O)c2nccc(Oc3ccccc3)n2)COc2cc3ncoc3cc21 [RIP1-213] | 7.68e-08 M |
| CN1C(=O)[C@@H](NC(=O)c2n[nH]c(Cc3c(F)cccc3F)n2)COc2ccc3cnccc3c21 [RIP1-161] | 8.6e-09 M |
| CN1C(=O)[C@@H](NC(=O)c2cc(Oc3ccccc3)ccn2)COc2cc3[nH]ncc3cc21 [RIP1-190] | 1.44e-10 M |
| CN1C(=O)[C@@H](NC(=O)c2cn(Cc3ccccc3)cn2)CSc2ccc3ncccc3c21 [RIP1-094] | 2e-09 M |

| Structure (SMILES) | IC50 |
| --- | --- |
| CN1C(=O)[C@@H](NC(=O)c2ncn(Cc3ccccc3)n2)COc2cc3[nH]ccc3cc21 [RIP1-113] | 3.07e-10 M |
| CN1C(=O)[C@@H](NC(=O)c2cc(Cc3ccccc3)on2)CSc2cc3occc3cc21 [RIP1-038] | 1.29e-10 M |
| Cc1nc2cc3c(cc2[nH]1)OC[C@H](NC(=O)c1nnn(Cc2ccccc2)n1)C(=O)N3C [RIP1-071] | 1.71e-08 M |
| CN1C(=O)[C@@H](NC(=O)c2n[nH]c(Cc3cccc(F)c3)n2)COc2cc3nccnc3cc21 [RIP1-209] | 1.92e-09 M |
| CN1C(=O)[C@@H](NC(=O)c2cn(Cc3ccccc3)nn2)CSc2cc3occc3cc21 [RIP1-040] | 3.6e-10 M |
| CN1C(=O)[C@@H](NC(=O)c2cc(Cc3ccccc3)on2)CSc2ccc3cnccc3c21 [RIP1-106] | 7.47e-10 M |
| Cc1ccc(Cc2cc(C(=O)N[C@H]3COc4cc5occc5cc4N(C)C3=O)nn2C)cc1 [RIP1-124] | 2.09e-08 M |
| CN1C(=O)[C@@H](NC(=O)c2cc(Oc3cccnc3)ccn2)COc2ccc3ncccc3c21 [RIP1-210] | 7.8e-09 M |
| CN1C(=O)[C@@H](NC(=O)c2ncn(Cc3ccccc3)n2)COc2cc3[nH]ncc3cc21 [RIP1-025] | 2.86e-10 M |
| CN1C(=O)[C@@H](NC(=O)c2n[nH]c(Cc3ccc(F)cc3)n2)COc2cc3[nH]nnc3cc21 [RIP1-167] | 1.6e-06 M |
| CN1C(=O)[C@@H](NC(=O)c2cccc(Cc3ccccc3)c2)CSc2cc3[nH]ccc3cc21 [RIP1-007] | 3.4e-07 M |
| CN1C(=O)[C@@H](NC(=O)c2n[nH]c(Cc3ccc(F)cc3)n2)COc2ccc3ncccc3c21 [RIP1-171] | 1.4e-08 M |
| CN1C(=O)[C@@H](NC(=O)c2cc(Oc3ccccc3)ccn2)COc2ccc3cnccc3c21 [RIP1-178] | 3.23e-10 M |
| CN1C(=O)[C@@H](NC(=O)c2cc(Cc3ccccc3)on2)CSc2ccc3ncccc3c21 [RIP1-096] | 1.38e-09 M |
| Cc1ccc(Cc2cc(C(=O)N[C@H]3CSc4cc5[nH]ccc5cc4N(C)C3=O)nn2C)cc1 [RIP1-045] | > 2e-06 M |
| CN1C(=O)[C@@H](NC(=O)c2n[nH]c(Cc3ccccc3F)n2)COc2cc3nccnc3cc21 [RIP1-208] | 1.49e-09 M |
| CN1C(=O)[C@@H](NC(=O)c2n[nH]c(Cc3ccccc3)n2)CSc2cc3[nH]ccc3cc21 [RIP1-001] | 1.38e-09 M |
| CN1C(=O)[C@@H](NC(=O)c2cn(Cc3ccccc3)nn2)COc2cc3[nH]ccc3cc21 [RIP1-115] | 3.48e-09 M |
| CN1C(=O)[C@@H](NC(=O)c2cc(Oc3cccnc3)ccn2)COc2cc3nccnc3cc21 [RIP1-214] | 2.41e-08 M |
| CN1C(=O)[C@@H](NC(=O)c2cncn2Cc2ccccc2)CSc2cc3[nH]ncc3cc21 [RIP1-017] | > 2e-06 M |
| CN1C(=O)[C@@H](NC(=O)c2ncn(Cc3ccccc3)n2)CSc2cc3c(ccn3C)cc21 [RIP1-012] | 1.22e-09 M |
| CN1C(=O)[C@@H](NC(=O)c2n[nH]c(Cc3c(F)cc(F)cc3F)n2)COc2cc3occc3cc21 [RIP1-173] | 7e-08 M |
| CN1C(=O)[C@@H](NC(=O)c2cc(Cc3ccccc3)on2)CSc2cc3c(ccn3C)cc21 [RIP1-009] | 1.08e-09 M |
